Test results taken from paper PMC12356538, “Targeting the SARS-CoV‑2 RNA Translation Initiation Element SL1 by Molecules of Low Molecular Weight” (Journal of the American Chemical Society, 2025).
Several values for one entry are separate records, joined by “and”; a condition that tells them apart may be missing. Equal values may be shown once. Entries after “also recorded” stand apart in the source; their conditions may differ. Read-outs that look alike come from different tables or passages of the source.

Columns and labels:
[1] = tested on: SARS-CoV-2 SL1 RNA (SL1 wt); type: binding; conditions: for wLOGSY factor / T2 reduction [%] / CSP [Hz]: 10 μM SL1 wt, 200 μM ligand; for wLOGSY factor / T2 reduction [%]: pH 6.2; for T2 reduction [%]: CPMG 100 vs 5 ms; for Rank: FBS ranking from summed ranks of CSP, wLOGSY and T2 results; for Rank / Normalized FBS score / 1 - normalized FBS score / FBS score: SL1 wt; for 1 - normalized FBS score: 0 lowest, 1 highest score; for FBS score: radar chart values; for CSP [Hz]: ligand 1H CSP, [RNA]:[ligand] 1:20, pH 6.2
[2] = tested on: β-Globin-Nanoluciferase mRNA; experiment: Cell-free translation assay in rabbit reticulocyte lysate, Nanoluciferase readout; type: biochemical; conditions: 0.2 μM mRNA, 2 μM compound
SL1 RNA = experiment: RNA-detected NMR binding site mapping (2D-1H,1H-TOCSY and 1D-1H); parameters: species or system SARS-CoV-2; conditions: for 1H,1H CSPs [ppm] C15H5-H6 / 1H,1H CSPs [ppm] C16H5-H6 / 1H,1H CSPs [ppm] C19H5-H6 / 1H,1H CSPs [ppm] C20H5-H6 / 1H,1H CSPs [ppm] C21H5-H6 / 1H,1H CSPs [ppm] C28H5-H6 / 1H,1H CSPs [ppm] C32H5-H6 / 1H,1H CSPs [ppm] C33H5-H6 / 1H,1H CSPs [ppm] C34H5-H6 / 1H,1H CSPs [ppm] U9H5-H6 / 1H,1H CSPs [ppm] U10H5-H6 / 1H,1H CSPs [ppm] U11H5-H6 / 1H,1H CSPs [ppm] U13H5-H6 / 1H,1H CSPs [ppm] U17H5-H6 / 1H,1H CSPs [ppm] U18H5-H6 / 1H,1H CSPs [ppm] U25H5-H6: 2D TOCSY, RNA 150 μM, compound 1 mM, 298 K; for 1H CSPs [ppm] A12H2 / 1H CSPs [ppm] A29H2: RNA-detected 1D-1H
SL1 wt RNA = experiment: NMR-based KD estimation, ligand-detected 1D-1H titration; type: binding, SARS-CoV-2
[3] = tested on: SL1 Δbulge-Nanoluciferase mRNA; type: biochemical, SARS-CoV-2
[4] = tested on: SL1 RNA labeled with 2AP at position A27; experiment: 2-Aminopurine fluorescence binding assay; parameters: species or system SARS-CoV-2; conditions: 0.5 μM 2AP-SL1, compound 0-400 μM, 25 °C, pH 6.2
SL1 Δbulge RNA = type: binding, SARS-CoV-2
[5] = tested on: SL1 (wt)-Nanoluciferase mRNA; type: biochemical, SARS-CoV-2
[6] = pH 6.2
[7] = Suppl. Table 7, ligand constant at 100, SL1 wt RNA concentration 0-250, read-out: KDest
[8] = ligand 100 μM, SL1 RNA 0 to 200 or 250 μM, 298 K, 600 MHz, pH 6.2, read-out: KD est

Row | Structure (SMILES) | wLOGSY factor [1] | T2 reduction [%] [1] | Rank [1] | Normalized FBS score [1] | 1 - normalized FBS score [1] | FBS score [1] | CSP [Hz] [1] | 1H,1H CSPs [ppm] C16H5-H6 (SL1 RNA) | 1H,1H CSPs [ppm] C19H5-H6 (SL1 RNA) | 1H,1H CSPs [ppm] C20H5-H6 (SL1 RNA) | 1H,1H CSPs [ppm] C21H5-H6 (SL1 RNA) | 1H,1H CSPs [ppm] C28H5-H6 (SL1 RNA) | 1H,1H CSPs [ppm] C33H5-H6 (SL1 RNA) | 1H,1H CSPs [ppm] C34H5-H6 (SL1 RNA) | 1H,1H CSPs [ppm] U9H5-H6 (SL1 RNA) | 1H,1H CSPs [ppm] U10H5-H6 (SL1 RNA) | 1H,1H CSPs [ppm] U11H5-H6 (SL1 RNA) | 1H,1H CSPs [ppm] U13H5-H6 (SL1 RNA) | 1H,1H CSPs [ppm] U17H5-H6 (SL1 RNA) | 1H,1H CSPs [ppm] U18H5-H6 (SL1 RNA) | other results
1 | CNC(=O)Nc1nc2c(O)cc(O)cc2s1 [A.13] | 0.33 | 100.00% | 25 | 0.68 | 0.32 | 25 | 4.11 Hz | 0.0032 ppm | 0.0022 ppm | 0.0022 ppm | 0.0045 ppm | 0.0278 ppm | 0.0032 ppm | 0.0087 ppm | 0.0067 ppm | 0.0112 ppm | 0.0702 ppm | 0.0209 ppm | 0.0051 ppm | 0.0022 ppm | inhibition rate ([2]; relative to untreated control): ~10%; 1H,1H CSPs [ppm] C15H5-H6 (SL1 RNA): 0.0030 ppm; 1H,1H CSPs [ppm] C32H5-H6 (SL1 RNA): 0.0082 ppm; 1H,1H CSPs [ppm] U25H5-H6 (SL1 RNA): 0.0020 ppm; 1H CSPs [ppm] A12H2 (SL1 RNA): 0.0630 ppm; 1H CSPs [ppm] A29H2 (SL1 RNA): 0.0190 ppm; Kd (SL1 wt RNA; [7]): 312 µM; inhibition rate [3]: ~0.5%; affinity trend compared to lead A [4]: increased affinity; FBS result (CSP, wLOGSY, T2 reduction) in words (SL1 Δbulge RNA): severe line broadening; signal disappearance; also recorded: complete loss of ligand peaks; Normalized inhibition rate (normalized activity score) [5]: 1.00; SL1 wt inhibition rate [%] [5]: 49.50% and ~50%; effect on translation of SL1 wt mRNA, in words [5]: significant and selective inhibition; also recorded: highest inhibition efficiency; also recorded: greatest translation inhibition; time-resolved SL1-driven translation, in words [5]: most pronounced delay and suppression
2 | CNC(=O)Nc1nc2ccc(OC)cc2s1 [A] | 0.78 | 66.95% | 37 | 1.00 | 0.00 | 37 | 3.96 Hz | 0.0050 ppm | 0.0050 ppm | 0.0050 ppm | 0.0095 ppm | 0.0502 ppm | 0.0042 ppm | 0.0054 ppm | 0.0117 ppm | 0.0179 ppm | 0.0824 ppm | 0.0242 ppm | 0.0100 ppm | 0.0010 ppm | effect on translation of β-globin mRNA, in words [2]: increased translation efficiency; binding site / selectivity for the bulge from CSP and LB mapping, in words (SL1 RNA): binds selectively to the bulge; 1H,1H CSPs [ppm] C15H5-H6 (SL1 RNA): 0.0081 ppm; 1H,1H CSPs [ppm] C32H5-H6 (SL1 RNA): 0.0124 ppm; 1H,1H CSPs [ppm] U25H5-H6 (SL1 RNA): 0.0160 ppm; 1H CSPs [ppm] A12H2 (SL1 RNA): 0.0041 ppm; Kd (SL1 wt RNA; [7]): 136 µM; Kd (SL1 wt RNA; [8]): 136 ± 34 µM; effect on translation of SL1 Δbulge mRNA, in words [3]: increased translation efficiency; solubility, in words [6]: solubility issues; CSP [Hz] (SL1 Δbulge RNA): 0.00 Hz; FBS result (CSP, wLOGSY, T2 reduction) in words (SL1 Δbulge RNA): no effects; Normalized abs. CSP SL1 wt - CSP SL1 Δbulge (normalized selectivity score) (SL1 Δbulge RNA): 0.59; abs. CSP SL1 wt - CSP SL1 Δbulge (SL1 Δbulge RNA): 3.96; Normalized inhibition rate (normalized activity score) [5]: -0.03; SL1 wt inhibition rate [%] [5]: -1.66%; time-resolved SL1-driven translation, in words [5]: more subtle temporal effects
3 | COc1ccc2nc(NC(=O)CN(C)C)sc2c1 [A.2] | 0.72 | 79.26% | 30 | 0.81 | 0.19 | 30 | 12.23 Hz | 0.0166 ppm | 0.0190 ppm | 0.0143 ppm | 0.0230 ppm | 0.0813 ppm | 0.0085 ppm | 0.0081 ppm | 0.0247 ppm | 0.0231 ppm | 0.0462 ppm | 0.0110 ppm | 0.0143 ppm | 0.0071 ppm | effect on translation of β-globin mRNA, in words [2]: increased translation efficiency; also recorded: boost; binding site / selectivity for the bulge from CSP and LB mapping, in words (SL1 RNA): bound the bulge less selectively; 1H,1H CSPs [ppm] U25H5-H6 (SL1 RNA): 0.0361 ppm; 1H CSPs [ppm] A12H2 (SL1 RNA): 0.1420 ppm; 1H CSPs [ppm] A29H2 (SL1 RNA): 0.0190 ppm; Kd (SL1 wt RNA; [7]): 144 µM; Kd (SL1 wt RNA; [8]): 144 ± 31 µM; effect on translation of SL1 Δbulge mRNA, in words [3]: increased translation efficiency; also recorded: about half as pronounced as that for SL1 wt; affinity trend compared to lead A [4]: increased affinity; solubility, in words [6]: increased solubility; CSP [Hz] (SL1 Δbulge RNA): 5.52 Hz; Normalized abs. CSP SL1 wt - CSP SL1 Δbulge (normalized selectivity score) (SL1 Δbulge RNA): 1.00; Rank (SL1 Δbulge RNA): 5; T2 reduction [%] (SL1 Δbulge RNA): 67.46%; abs. CSP SL1 wt - CSP SL1 Δbulge (SL1 Δbulge RNA): 6.71; wLOGSY factor (SL1 Δbulge RNA): 0.00; Normalized inhibition rate (normalized activity score) [5]: 0.73; SL1 wt inhibition rate [%] [5]: 36.23%; effect on translation of SL1 wt mRNA, in words [5]: significant and selective inhibition; also recorded: highest inhibition efficiency; time-resolved SL1-driven translation, in words [5]: more subtle temporal effects
